doi:10.1101/2023.09.30.560269v1 (biorxiv, 2023)

Legend:
[1] = target: T1, hLIFR and CD130 (IL6ST); LIFR/gp130 (Homo sapiens, UniProt P42702); assay: STAT3; assay type: cell-based
T1 sequence (P42702 45-1097): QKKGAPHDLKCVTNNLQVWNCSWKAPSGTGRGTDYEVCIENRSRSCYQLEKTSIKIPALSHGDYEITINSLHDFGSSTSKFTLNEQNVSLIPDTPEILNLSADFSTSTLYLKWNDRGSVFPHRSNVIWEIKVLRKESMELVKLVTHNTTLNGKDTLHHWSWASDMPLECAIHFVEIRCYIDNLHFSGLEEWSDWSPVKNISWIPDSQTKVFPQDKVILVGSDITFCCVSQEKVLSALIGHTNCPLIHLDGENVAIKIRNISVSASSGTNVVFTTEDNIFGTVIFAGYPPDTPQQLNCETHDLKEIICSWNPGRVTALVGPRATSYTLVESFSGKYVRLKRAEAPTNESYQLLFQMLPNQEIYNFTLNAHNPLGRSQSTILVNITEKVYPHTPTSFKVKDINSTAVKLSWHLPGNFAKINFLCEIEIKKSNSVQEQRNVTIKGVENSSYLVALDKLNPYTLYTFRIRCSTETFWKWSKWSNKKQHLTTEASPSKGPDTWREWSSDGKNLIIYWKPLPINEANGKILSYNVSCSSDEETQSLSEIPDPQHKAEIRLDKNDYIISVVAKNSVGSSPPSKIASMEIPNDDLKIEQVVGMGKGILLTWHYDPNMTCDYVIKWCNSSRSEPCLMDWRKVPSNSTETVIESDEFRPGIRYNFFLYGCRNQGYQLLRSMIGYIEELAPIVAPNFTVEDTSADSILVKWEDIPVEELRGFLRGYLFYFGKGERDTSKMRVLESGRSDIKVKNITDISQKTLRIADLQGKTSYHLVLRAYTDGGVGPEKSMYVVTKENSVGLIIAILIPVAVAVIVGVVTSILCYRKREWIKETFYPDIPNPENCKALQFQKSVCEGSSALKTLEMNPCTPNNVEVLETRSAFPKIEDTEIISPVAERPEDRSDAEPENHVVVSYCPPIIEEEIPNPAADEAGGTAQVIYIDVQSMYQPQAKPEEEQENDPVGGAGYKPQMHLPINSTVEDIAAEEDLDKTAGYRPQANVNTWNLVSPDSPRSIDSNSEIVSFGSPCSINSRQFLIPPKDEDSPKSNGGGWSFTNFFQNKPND

[2] = target: T2, hLIFR (recombinant human LIFR, His Tag) (Homo sapiens, UniProt P42702); assay: AlphaScreen, inhibition of LIFR/LIF binding
T2 sequence (P42702 45-833 limits assumed): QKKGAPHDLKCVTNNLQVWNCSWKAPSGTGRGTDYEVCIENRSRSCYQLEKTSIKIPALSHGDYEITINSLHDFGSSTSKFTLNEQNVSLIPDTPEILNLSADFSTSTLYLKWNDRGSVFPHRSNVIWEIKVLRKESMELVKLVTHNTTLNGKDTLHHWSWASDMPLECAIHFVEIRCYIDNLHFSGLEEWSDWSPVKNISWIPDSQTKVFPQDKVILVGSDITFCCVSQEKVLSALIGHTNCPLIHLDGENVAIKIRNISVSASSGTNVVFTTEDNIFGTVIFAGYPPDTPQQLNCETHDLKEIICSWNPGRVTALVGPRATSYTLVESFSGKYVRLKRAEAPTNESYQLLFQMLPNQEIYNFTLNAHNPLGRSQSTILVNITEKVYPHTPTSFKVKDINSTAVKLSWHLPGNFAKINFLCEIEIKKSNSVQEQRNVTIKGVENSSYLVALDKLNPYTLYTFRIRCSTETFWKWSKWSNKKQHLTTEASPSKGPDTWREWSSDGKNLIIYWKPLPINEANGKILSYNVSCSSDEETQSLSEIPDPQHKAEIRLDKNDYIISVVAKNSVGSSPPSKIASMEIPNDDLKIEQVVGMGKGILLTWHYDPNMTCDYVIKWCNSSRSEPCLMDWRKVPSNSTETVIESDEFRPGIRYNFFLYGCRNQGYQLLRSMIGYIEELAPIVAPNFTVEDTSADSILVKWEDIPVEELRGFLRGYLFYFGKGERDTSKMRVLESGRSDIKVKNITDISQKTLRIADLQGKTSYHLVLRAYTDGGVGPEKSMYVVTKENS

Row | SMILES | IC50 [1] | IC50 [2]
1 | C[C@H](CCC(=O)O)[C@H]1CC[C@H]2[C@@H]3CC[C@@H]4C[C@H](O)CC[C@]4(C)[C@H]3C[C@H](O)[C@]12C [DCA] | ~6.2 µM | 18.4 µM
2 | C[C@H](CCC(=O)NCC(=O)O)[C@H]1CC[C@H]2[C@@H]3[C@H](O)C[C@@H]4C[C@H](O)CC[C@]4(C)[C@H]3CC[C@]12C [GCDCA] | – | 50.6 µM
3 | C[C@H](CCC(=O)NCC(=O)O)[C@H]1CC[C@H]2[C@@H]3CC[C@@H]4C[C@H](O)CC[C@]4(C)[C@H]3CC[C@]12C [GLCA] | ~9.8 µM | 23 µM
4 | C[C@H](CCC(=O)NCCS(=O)(=O)O)[C@H]1CC[C@H]2[C@@H]3[C@H](O)C[C@@H]4C[C@H](O)CC[C@]4(C)[C@H]3CC[C@]12C [TCDCA] | – | 38 µM
